Measured values taken from PubChem BioAssay (NCI).
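Step 1: Grow cells in 96-well plates. Step 2: Expose to compound for 48 hours at 5 concentrations. Step 3: Interpolate endpoints linearly; if unreached, use highest concentration. At the GI50, growth is halved. TGI marks complete inhibition of growth.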

Assays:
Test in all cases: NCI-60 cell line screen, 48 h
UO-31 renal = system: UO-31 renal
OVCAR-4 ovarian = system: OVCAR-4 ovarian
SN12C renal = system: SN12C renal
LOX IMVI melanoma = system: LOX IMVI melanoma
RPMI-8226 leukemia = system: RPMI-8226 leukemia
CCRF-CEM leukemia = system: CCRF-CEM leukemia
EKVX NSCLC = system: EKVX NSCLC
PC-3 prostate = system: PC-3 prostate
MCF7 breast = system: MCF7 breast
HS 578T breast = system: HS 578T breast

SMILES | TGI (UO-31 renal) | TGI (OVCAR-4 ovarian) | TGI (SN12C renal) | TGI (LOX IMVI melanoma) | TGI (RPMI-8226 leukemia) | TGI (CCRF-CEM leukemia) | TGI (EKVX NSCLC) | GI50 (UO-31 renal) | GI50 (PC-3 prostate) | TGI (PC-3 prostate) | GI50 (SN12C renal) | GI50 (RPMI-8226 leukemia) | GI50 (CCRF-CEM leukemia) | GI50 (MCF7 breast) | TGI (MCF7 breast) | GI50 (HS 578T breast) | TGI (HS 578T breast) | GI50 (OVCAR-4 ovarian) | GI50 (LOX IMVI melanoma)
O=C(N/C(=C\c1ccc(Cl)cc1)c1nc2ccccc2[nH]1)c1ccccc1 | 42.2 µM | 37.9 µM | 49.2 µM | 31.5 µM | 42.6 µM | 57.3 µM | 58.1 µM | – | – | – | – | – | – | – | – | – | – | – | –
Cc1nc2ccc(Nc3nc(Cl)nc(N4CCOCC4)n3)cc2n1Cc1ccccc1 | > 100 µM | – | 88 µM | – | > 100 µM | > 100 µM | – | 8.89 µM | 10 µM | > 100 µM | 6.79 µM | 97.2 µM | 2.93 µM | 18.4 µM | > 100 µM | 4.67 µM | > 100 µM | – | –
CCN(CC)c1cccc2c1/C(=N/O)CCCC2 | > 100 µM | > 100 µM | > 100 µM | > 100 µM | > 100 µM | > 100 µM | > 100 µM | – | – | – | – | – | – | – | – | – | – | – | –
CC(C)OP(=O)(OC(C)C)/C(Cl)=N/Nc1ccc([N+](=O)[O-])cc1 | > 100 µM | > 100 µM | > 100 µM | > 100 µM | > 100 µM | > 100 µM | > 100 µM | – | – | – | – | – | – | – | – | – | – | – | –
CCCNC(=S)/N=C/c1c(O)cc(C)oc1=O | > 100 µM | > 100 µM | > 100 µM | > 100 µM | – | – | > 100 µM | – | – | > 100 µM | – | – | – | – | > 100 µM | – | – | – | –
C/C(=C1/N=C(c2cc([N+](=O)[O-])ccc2Cl)N(c2cccc(C)c2)C1=O)c1cc2ccccc2oc1=O | > 100 µM | – | > 100 µM | 37.1 µM | 72 µM | > 100 µM | > 100 µM | – | – | – | – | – | – | – | – | – | – | – | –
O=C1CSCc2sccc21 | > 100 µM | > 100 µM | > 100 µM | – | – | > 100 µM | > 100 µM | – | – | > 100 µM | – | – | – | – | > 100 µM | – | > 100 µM | – | –
COC[C@@H](N=C1NC(=O)/C(=C/c2ccc3ncccc3c2)S1)c1ccccc1 | > 25 µM | > 25 µM | > 25 µM | > 25 µM | 20.7 µM | > 22 µM | – | 6.7 µM | 12.1 µM | > 25 µM | 8.52 µM | 6.13 µM | 6.8 µM | 7.24 µM | > 25 µM | 7.43 µM | > 23.2 µM | 5.16 µM | 9.73 µM
CN(CCN1C(=O)c2cc([N+](=O)[O-])cc3cc([N+](=O)[O-])cc(c23)C1=O)CCN1C(=O)c2cc([N+](=O)[O-])cc3cc([N+](=O)[O-])cc(c23)C1=O | > 20.8 µM | > 100 µM | > 100 µM | 1.44 µM | > 21.2 µM | 4.03 µM | > 100 µM | – | – | – | – | – | – | – | – | – | – | – | –
O=C1C2Nc3ccccc3SC2C(=O)N1c1ccc(Br)cc1 (stereo not drawn) | 68.2 µM | 74.2 µM | > 100 µM | > 100 µM | > 100 µM | – | > 100 µM | – | – | – | – | – | – | – | – | – | – | – | –
CN1C(=O)CCC1(O)C1C=CC=CC1 (stereo not drawn) | > 100 µM | > 100 µM | > 100 µM | > 100 µM | > 100 µM | > 100 µM | – | – | – | – | – | – | – | – | – | – | – | – | –
